30 molecules from patent US12479830B2, “Homopiperazinyl and homopiperidinyl quinazolin-4(3H)-one derivatives having multimodal activity against pain” (ESTEVE PHARMACEUTICALS, S.A., priority 2019, dated 2025) can be followed below.

The target in one experiment is T1, Human σ1 receptor (Homo sapiens, UniProt Q99720).
T1 construct: expressed in transfected cells; host or cells: HEK-293
The experiment is described as follows: Human σ1 receptor radioligand assay ([3H](+)-pentazocine binding). Conditions: binding to the σ1 receptor, expressed as Ki class; + also covers inhibition between 1% and 50%. As to the method:
Human σ1 Receptor Radioligand Assay
Transfected HEK-293 membranes (7 μg) were incubated with 5 nM of [^3H](+)-pentazocine in assay buffer containing Tris-HCl 50 mM at pH 8. NBS (non-specific binding) was measured by adding 10 μM haloperidol. The binding of the test compound was measured at either one concentration (% inhibition at 1 or 10 μM) or five different concentrations to determine affinity values (Ki). Plates were incubated at 37° C. for 120 minutes. After the incubation period, the reaction mix was then transferred to MultiScreen HTS, FC plates (Millipore), filtered and plates were washed 3 times with ice-cold 10 mM Tris-HCL (pH7.4). Filters were dried and counted at approximately 40% efficiency in a MicroBeta scintillation counter (Perkin-Elmer) using EcoScint liquid scintillation cocktail.

The target in experiment [1] is Human α2δ-1 subunit of Cav2.2 calcium channel (Homo sapiens, UniProt P54289). As to the kind of experiment: Human α2δ-1 subunit of Cav2.2 calcium channel assay ([3H]-gabapentin binding). Conditions: binding to the α2δ-1 subunit of voltage-gated calcium channels, expressed as Ki class; + also covers inhibition between 1% and 50%. As for the experimental part:
Human α2δ-1 Subunit of Cav2.2 Calcium Channel Assay
Human α2δ-1 enriched membranes (2.5 μg) were incubated with 15 nM of radiolabeled [^3H]-Gabapentin in assay buffer containing Hepes-KOH 10 mM. pH 7.4. NSB (non specific binding) was measured by adding 10 μM pregabalin. The binding of the test compound was measured at either one concentration (% inhibition at 1 or 10 μM) or five different concentrations to determine affinity values (Ki). After 60 min incubation at 27° C., binding reaction was terminated by filtering through Multiscreen GF/C (Millipore) presoaked in 0.5% polyethyleneimine in Vacuum Manifold Station, followed by 3 washes with ice-cold filtration buffer containing 50 mM Tris-HCl, pH 7.4. Filter plates were dried at 60° C. for 1 h and 30 μL of scintillation cocktail were added to each well before radioactivity reading. Readings were performed in a Trilux 1450 Microbeta radioactive counter (Perkin Elmer).

T1 sequence (Q99720 whole entry): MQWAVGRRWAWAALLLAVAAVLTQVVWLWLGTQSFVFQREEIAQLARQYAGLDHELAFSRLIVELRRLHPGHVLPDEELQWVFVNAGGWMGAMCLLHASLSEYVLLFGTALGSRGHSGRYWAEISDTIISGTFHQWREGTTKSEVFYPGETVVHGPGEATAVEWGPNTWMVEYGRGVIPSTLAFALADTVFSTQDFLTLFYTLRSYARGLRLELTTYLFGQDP
Sequence of Human α2δ-1 subunit of Cav2.2 calcium channel (P54289 25-1103): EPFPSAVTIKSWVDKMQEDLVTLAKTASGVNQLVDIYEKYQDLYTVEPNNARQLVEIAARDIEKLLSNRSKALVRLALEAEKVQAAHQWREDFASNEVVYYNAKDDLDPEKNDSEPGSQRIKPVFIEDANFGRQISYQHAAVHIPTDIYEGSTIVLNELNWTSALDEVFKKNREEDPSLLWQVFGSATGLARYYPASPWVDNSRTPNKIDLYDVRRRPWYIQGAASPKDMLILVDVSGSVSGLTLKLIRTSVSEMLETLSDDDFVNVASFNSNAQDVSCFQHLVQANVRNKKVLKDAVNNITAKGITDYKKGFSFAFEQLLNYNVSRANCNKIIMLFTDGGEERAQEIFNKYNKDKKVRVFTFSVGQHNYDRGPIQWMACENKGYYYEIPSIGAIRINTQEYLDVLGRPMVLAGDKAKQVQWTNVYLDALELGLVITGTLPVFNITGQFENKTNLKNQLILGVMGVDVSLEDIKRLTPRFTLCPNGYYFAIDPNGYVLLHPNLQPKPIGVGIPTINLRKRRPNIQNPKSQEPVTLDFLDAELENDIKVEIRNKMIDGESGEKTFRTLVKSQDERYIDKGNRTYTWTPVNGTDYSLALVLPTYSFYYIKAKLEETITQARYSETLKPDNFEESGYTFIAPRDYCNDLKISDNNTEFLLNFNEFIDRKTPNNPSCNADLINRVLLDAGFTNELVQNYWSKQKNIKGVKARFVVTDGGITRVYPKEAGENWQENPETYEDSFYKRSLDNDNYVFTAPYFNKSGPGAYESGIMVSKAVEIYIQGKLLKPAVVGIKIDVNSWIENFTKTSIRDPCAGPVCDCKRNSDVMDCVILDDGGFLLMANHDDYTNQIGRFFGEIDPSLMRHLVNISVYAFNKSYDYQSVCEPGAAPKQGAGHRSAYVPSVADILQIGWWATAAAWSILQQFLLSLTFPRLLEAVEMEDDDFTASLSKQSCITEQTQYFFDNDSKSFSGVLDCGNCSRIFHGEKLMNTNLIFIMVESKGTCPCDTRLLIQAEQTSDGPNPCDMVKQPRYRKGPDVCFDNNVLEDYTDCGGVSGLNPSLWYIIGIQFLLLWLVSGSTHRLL

As usually defined, the Ki is a dissociation constant, usually derived from enzyme kinetics or from competition with a known ligand. With `CCCC(c1nc2cc(Br)c(F)cc2c(=O)n1CCC)N1CCCN(C)CC1` (stereo not drawn) [Example 31, 7-bromo-6-fluoro-2-(1-(4-methyl-1,4-diazepan-1-yl)butyl)-3-propylquinazolin-4(3H)-one], the Ki at Human σ1 receptor is 0.5 to 1 µM; in experiment [1], less than 0.5 µM.
As for `CCCC(c1nc2cc(Br)c(F)cc2c(=O)n1CC)N1CCCN(C)CC1` (stereo not drawn) [Example 33, 7-bromo-3-ethyl-6-fluoro-2-(1-(4-methyl-1,4-diazepan-1-yl)butyl)quinazolin-4(3H)-one], the inhibitory constant (Ki) (on Human σ1 receptor; in experiment [1]) was less than 0.5 µM in each case.
With `CCCC(c1nc2cc(F)c(Br)cc2c(=O)n1CCC)N1CCCNCC1` (stereo not drawn) [Example 34, 2-(1-(1,4-diazepan-1-yl)butyl)-6-bromo-7-fluoro-3-propylquinazolin-4(3H)-one], the Ki is greater than 1 µM on Human σ1 receptor and less than 0.5 µM in experiment [1].
For `CCC[C@H](c1nc2ccc(Br)cc2c(=O)n1CC)N1CCN(C)C[C@@H](C)C1` [Example 35, 6-bromo-2-((R)-1-((R)-4,6-dimethyl-1,4-diazepan-1-yl)butyl)-3-ethylquinazolin-4(3H)-one], the figures for the inhibition constant (Ki) (at Human σ1 receptor; in experiment [1]) were greater than 1 µM and less than 0.5 µM, respectively.
As for `CCC[C@H](c1nc2ccc(Br)cc2c(=O)n1CC)N1CCN(C)C[C@H](C)C1` [Example 36, 6-bromo-2-((R)-1-((S)-4,6-dimethyl-1,4-diazepan-1-yl)butyl)-3-ethylquinazolin-4(3H)-one], the Ki on Human σ1 receptor is 0.5 to 1 µM; in experiment [1], less than 0.5 µM.
As for `CCC[C@@H](c1nc2ccc(Br)cc2c(=O)n1CC)N1CCN(C)C[C@H](C)C1` [Example 37, 6-bromo-2-((S)-1-((S)-4,6-dimethyl-1,4-diazepan-1-yl)butyl)-3-ethylquinazolin-4(3H)-one], the results for the Ki (at Human σ1 receptor; in experiment [1]) were greater than 1 µM and greater than 5 µM, respectively.
The like results for `CCC[C@@H](c1nc2ccc(Br)cc2c(=O)n1CC)N1CCN(C)C[C@@H](C)C1` [Example 38, 6-bromo-2-((S)-1-((R)-4,6-dimethyl-1,4-diazepan-1-yl)butyl)-3-ethylquinazolin-4(3H)-one] were, in that order, greater than 1 µM and greater than 5 µM.
For `CCCC(c1nc2cc(C)c(Br)cc2c(=O)n1CC)N1CCCN(C)CC1` (stereo not drawn) [Example 39, 6-bromo-3-ethyl-7-methyl-2-(1-(4-methyl-1,4-diazepan-1-yl)butyl)quinazolin-4(3H)-one], in that order: 0.5 to 1 µM and less than 0.5 µM.
As to `CCCC(c1nc2c(F)cc(Br)cc2c(=O)n1CC)N1CCCN(C)CC1` (stereo not drawn) [Example 40, 6-bromo-3-ethyl-8-fluoro-2-(1-(4-methyl-1,4-diazepan-1-yl)butyl)quinazolin-4(3H)-one], the Ki on Human σ1 receptor was 0.5 to 1 µM; in experiment [1] it was less than 0.5 µM.
The like results for `CCCC(c1nc2ccc(Br)c(C)c2c(=O)n1CC)N1CCCNCC1` (stereo not drawn) [Example 41, 2-(1-(1,4-diazepan-1-yl)butyl)-6-bromo-3-ethyl-5-methylquinazolin-4(3H)-one] were, in that order, greater than 1 µM and greater than 5 µM.
The like results for `CCCC(c1nc2ccc(Br)cc2c(=O)n1CC)N1CCN(C)CC(F)(F)C1` (stereo not drawn) [Example 42, 6-bromo-2-(1-(6,6-difluoro-4-methyl-1,4-diazepan-1-yl)butyl)-3-ethylquinazolin-4(3H)-one] were, in that order, greater than 1 µM and greater than 5 µM.
As for `CCCC(c1nc2ccc(F)cc2c(=O)n1CC(C)C)N1CCCN(C)CC1` (stereo not drawn) [Example 43, 6-fluoro-3-isobutyl-2-(1-(4-methyl-1,4-diazepan-1-yl)butyl)quinazolin-4(3H)-one], the Ki (at Human σ1 receptor; in experiment [1]) was less than 0.5 µM in each case.
`CCCC(c1nc2cc(C)c(Br)cc2c(=O)n1CC)N1CCCNCC1` (stereo not drawn) [Example 44, 2-(1-(1,4-diazepan-1-yl)butyl)-6-bromo-3-ethyl-7-methylquinazolin-4(3H)-one]: the Ki at Human σ1 receptor is greater than 1 µM; in experiment [1], less than 0.5 µM.
With `CCCC(c1nc2cc(F)c(F)cc2c(=O)n1CC)N1CCCNCC1` (stereo not drawn) [Example 45, 2-(1-(1,4-diazepan-1-yl)butyl)-3-ethyl-6,7-difluoroquinazolin-4(3H)-one], the Ki at Human σ1 receptor was greater than 1 µM; in experiment [1] it was less than 0.5 µM.
In the case of `CCCC(c1nc2cc(F)c(F)cc2c(=O)n1CC)N1CCCN(CC)CC1` (stereo not drawn) [Example 46, 3-ethyl-2-(1-(4-ethyl-1,4-diazepan-1-yl)butyl)-6,7-difluoroquinazolin-4(3H)-one], the Ki (at Human σ1 receptor; in experiment [1]) was less than 0.5 µM throughout.
`CCCC(c1nc2ccc(Br)c(C)c2c(=O)n1CC)N1CCCN(CC)CC1` (stereo not drawn) [Example 47, 6-bromo-3-ethyl-2-(1-(4-ethyl-1,4-diazepan-1-yl)butyl)-5-methylquinazolin-4(3H)-one]: the Ki at Human σ1 receptor is less than 0.5 µM; in experiment [1], 0.5 to 5 µM.
As to `CCCC(c1nc2cc(C)c(Br)cc2c(=O)n1CC)N1CCCN(CC)CC1` (stereo not drawn) [Example 48, 6-bromo-3-ethyl-2-(1-(4-ethyl-1,4-diazepan-1-yl)butyl)-7-methylquinazolin-4(3H)-one], the Ki (at Human σ1 receptor; in experiment [1]) was less than 0.5 µM in each case.
With `CCCC(c1nc2c(Cl)cc(Br)cc2c(=O)n1CC)N1CCCN(C)CC1` (stereo not drawn) [Example 49, 6-bromo-8-chloro-3-ethyl-2-(1-(4-methyl-1,4-diazepan-1-yl)butyl)quinazolin-4(3H)-one], the Ki on Human σ1 receptor is 0.5 to 1 µM; in experiment [1], greater than 5 µM.
Turning to `CCCC(c1nc2ccc(F)cc2c(=O)n1CC(C)C)N1CCCN(CC)CC1` (stereo not drawn) [Example 50, 2-(1-(4-ethyl-1,4-diazepan-1-yl)butyl)-6-fluoro-3-isobutylquinazolin-4(3H)-one], the inhibition constant Ki (at Human σ1 receptor; in experiment [1]) was less than 0.5 µM throughout.
For `CCCC(c1nc2ccc(Br)c(F)c2c(=O)n1CC)N1CCCN(CC)CC1` (stereo not drawn) [Example 52, 6-bromo-3-ethyl-2-(1-(4-ethyl-1,4-diazepan-1-yl)butyl)-5-fluoroquinazolin-4(3H)-one], the inhibition constant Ki was less than 0.5 µM at Human σ1 receptor and 0.5 to 5 µM in experiment [1].
For `CCCC(c1nc2cccc(Br)c2c(=O)n1CC)N1CCCN(C)CC1` (stereo not drawn) [Example 53, 5-bromo-3-ethyl-2-(1-(4-methyl-1,4-diazepan-1-yl)butyl)quinazolin-4(3H)-one], in that order: less than 0.5 µM and 0.5 to 5 µM.
For the molecule `CCCC(c1nc2ccc(Br)cc2c(=O)n1CC(C)C)N1CCCN(C)CC1` (stereo not drawn) [Example 54, 6-bromo-3-isobutyl-2-(1-(4-methyl-1,4-diazepan-1-yl)butyl)quinazolin-4(3H)-one], the inhibitory constant (Ki) is 0.5 to 1 µM at Human σ1 receptor and less than 0.5 µM in experiment [1].
Consider `CCCC(c1nc2c(F)cc(Br)cc2c(=O)n1CC)N1CCCNCC1` (stereo not drawn) [Example 55, 2-(1-(1,4-diazepan-1-yl)butyl)-6-bromo-3-ethyl-8-fluoroquinazolin-4(3H)-one], for which the inhibitory constant (Ki) was greater than 1 µM at Human σ1 receptor and 0.5 to 5 µM in experiment [1].
For `CCCC(c1nc2ccc(Br)c(Cl)c2c(=O)n1CC)N1CCCN(C)CC1` (stereo not drawn) [Example 56, 6-bromo-5-chloro-3-ethyl-2-(1-(4-methyl-1,4-diazepan-1-yl)butyl)quinazolin-4(3H)-one], in that order: less than 0.5 µM and 0.5 to 5 µM.
In the case of `CCCC(c1nc2c(F)cc(Br)cc2c(=O)n1CC)N1CCCN(CC)CC1` (stereo not drawn) [Example 57, 6-bromo-3-ethyl-2-(1-(4-ethyl-1,4-diazepan-1-yl)butyl)-8-fluoroquinazolin-4(3H)-one], the inhibition constant Ki lay in the range of 0.5 to 1 µM at Human σ1 receptor and 0.5 to 5 µM in experiment [1].
Take `CCCC(c1nc2ccc(Br)cc2c(=O)n1CC(C)C)N1CCCN(CC)CC1` (stereo not drawn) [Example 58, 6-bromo-2-(1-(4-ethyl-1,4-diazepan-1-yl)butyl)-3-isobutylquinazolin-4(3H)-one]: the Ki (at Human σ1 receptor; in experiment [1]) was less than 0.5 µM throughout.
Consider `CCCC(c1nc2ccc(Br)c(F)c2c(=O)n1CC)N1CCCNCC1` (stereo not drawn) [Example 59, 2-(1-(1,4-diazepan-1-yl)butyl)-6-bromo-3-ethyl-5-fluoroquinazolin-4(3H)-one], for which the Ki on Human σ1 receptor was greater than 1 µM; in experiment [1], less than 0.5 µM.
Take `CCCC(c1nc2c(C)cc(Br)cc2c(=O)n1CC)N1CCCN(CC)CC1` (stereo not drawn) [Example 60, 6-bromo-3-ethyl-2-(1-(4-ethyl-1,4-diazepan-1-yl)butyl)-8-methylquinazolin-4(3H)-one]: the Ki was less than 0.5 µM at Human σ1 receptor and greater than 5 µM in experiment [1].
As to `CCCC(c1nc2cc(F)c(Br)cc2c(=O)n1CCC)N1CCCN(CC)CC1` (stereo not drawn) [Example 61, 6-bromo-2-(1-(4-ethyl-1,4-diazepan-1-yl)butyl)-7-fluoro-3-propylquinazolin-4(3H)-one], the Ki (at Human σ1 receptor; in experiment [1]) was less than 0.5 µM throughout.
Regarding `CCCC(c1nc2cc(Br)c(F)cc2c(=O)n1CCC)N1CCCN(CC)CC1` (stereo not drawn) [Example 62, 7-bromo-2-(1-(4-ethyl-1,4-diazepan-1-yl)butyl)-6-fluoro-3-propylquinazolin-4(3H)-one], the Ki (on Human σ1 receptor; in experiment [1]) was less than 0.5 µM throughout.
